Experimental data reported in PubChem BioAssay AID330 (DTP/NCI, 2004).
Values joined by “and” are separate entries in the source; they are usually repeats but may differ in a detail not shown here. Equal entries are not always repeated. Toxic doses and inconclusive results are not listed. The calls were made as follows: active = survival T/C of 150% or more; inactive = T/C below 125% in these data.

Test system: P388 leukemia ip, CD2F1 mice, survival T/C
Experiment: NCI In Vivo Anticancer Drug Screen. Data for tumor model P388 Leukemia (intraperitoneal) in CD2F1 (CDF1) mice
Details: endpoint: median survival time, higher = longer survival
Method in brief: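 Mice carrying the transplanted tumor received test compound or vehicle. Survival was recorded in each group, and the value is the treated-group measurement divided by that of the vehicle-treated control group.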

[1] = dose: 6.25 mg/kg/injection, schedule: Q01DX009 (ip), vehicle: saline
[2] = dose: 12.5 mg/kg/injection, schedule: Q01DX009 (ip), vehicle: saline with Tween-80
[3] = dose: 12.5 mg/kg/injection, schedule: Q01DX009 (ip), vehicle: saline
[4] = dose: 25.0 mg/kg/injection, schedule: Q04DX003 (ip), vehicle: saline with Tween-80
[5] = dose: 50.0 mg/kg/injection, schedule: Q04DX003 (ip), vehicle: saline with Tween-80
[6] = dose: 25.0 mg/kg/injection, schedule: Q01DX009 (ip), vehicle: saline with Tween-80
[7] = dose: 6.25 mg/kg/injection, schedule: Q01DX005 (ip), vehicle: saline with Tween-80
[8] = dose: 25.0 mg/kg/injection, schedule: Q01DX005 (ip), vehicle: saline with Tween-80
[9] = dose: 50.0 mg/kg/injection, schedule: Q01DX005 (ip), vehicle: saline with Tween-80
[10] = dose: 50.0 mg/kg/injection, schedule: Q01DX009 (ip), vehicle: saline with Tween-80
[11] = dose: 100.0 mg/kg/injection, schedule: Q01DX009 (ip), vehicle: saline with Tween-80
[12] = dose: 200.0 mg/kg/injection, schedule: Q01DX009 (ip), vehicle: saline with Tween-80
[13] = dose: 100.0 mg/kg/injection, schedule: Q04DX002 (ip), vehicle: saline with Tween-80
[14] = dose: 100.0 mg/kg/injection, schedule: Q01DX005 (ip), vehicle: saline with Tween-80
[15] = dose: 200.0 mg/kg/injection, schedule: Q01DX005 (ip), vehicle: saline with Tween-80
[16] = dose: 60.0 mg/kg/injection, schedule: Q01DX005 (ip), vehicle: Klucel (hydroxypropylcellulose) (HPC)
[17] = dose: 120.0 mg/kg/injection, schedule: Q01DX005 (ip), vehicle: Klucel (hydroxypropylcellulose) (HPC)
[18] = dose: 240.0 mg/kg/injection, schedule: Q01DX005 (ip), vehicle: Klucel (hydroxypropylcellulose) (HPC)

Measured: T/C

CCCCCCCCP(=O)(N1CC1C)N1CC1C (stereo unspecified)
inactive: dose: 3.13 mg/kg/injection, schedule: Q01DX009 (ip), vehicle: saline 109 % of control | [1] 109 % of control | [2] 122 % of control | [3] 109 % of control | dose: 12.5 mg/kg/injection, schedule: Q04DX003 (ip), vehicle: saline with Tween-80 100 % of control | [4] 95 % of control | [5] 109 % of control | dose: 50.0 mg/kg/injection, schedule: Q04DX003 (ip), vehicle: saline 108 % of control

CCOC1CC2C(=O)C(CC)=C(OC)CC2(CC)CO1 (stereo unspecified)
inactive: dose: 60.0 mg/kg/injection, schedule: Q01DX005 (ip), vehicle: saline with Tween-80 98 % of control | dose: 120.0 mg/kg/injection, schedule: Q01DX005 (ip), vehicle: saline with Tween-80 99 % of control

C[N+](C)(C)CCC(=O)c1ccco1
inactive: [1] 117 % of control | [3] 117 % of control | [6] 111 % of control | dose: 25.0 mg/kg/injection, schedule: Q01DX009 (ip), vehicle: saline 106 % of control

C/C(=N\N=C(/[Se])N1CCN(c2ccc(F)cc2)CC1)c1ccccn1
inactive: dose: 100.0 mg/kg/injection, schedule: Q04DX003 (ip), vehicle: Klucel (hydroxypropylcellulose) (HPC) 101 % of control | dose: 200.0 mg/kg/injection, schedule: Q04DX003 (ip), vehicle: Klucel (hydroxypropylcellulose) (HPC) 108 % of control | dose: 400.0 mg/kg/injection, schedule: Q04DX003 (ip), vehicle: Klucel (hydroxypropylcellulose) (HPC) 100 % of control

OC[P+](CO)(CO)CO
inactive: [7] 117 % of control and 96 % of control | dose: 12.5 mg/kg/injection, schedule: Q01DX005 (ip), vehicle: saline with Tween-80 114 % of control and 96 % of control | [8] 95 % of control | [9] 104 % of control and 122 % of control

O=S(=O)(Cc1cccc(C(F)(F)F)c1)c1nc2cccnc2s1
inactive: [10] 103 % of control | [11] 103 % of control | [12] 101 % of control

ClC1COc2cc(c3ccccc3c2)-c2c(ccc3ccccc23)OCCOCCOc2ccc3ccccc3c2-c2c(ccc3ccccc23)OCC(Cl)O1 (stereo unspecified)
inactive: [13] 102 % of control | dose: 200.0 mg/kg/injection, schedule: Q04DX002 (ip), vehicle: saline with Tween-80 102 % of control | dose: 400.0 mg/kg/injection, schedule: Q04DX002 (ip), vehicle: saline with Tween-80 105 % of control

CCOP(=O)(Nc1c(Cl)cc2c(c1Cl)Cc1cc([N+](=O)[O-])ccc1-2)OCC
inactive: dose: 50.0 mg/kg/injection, schedule: Q01DX005 (ip), vehicle: Klucel (hydroxypropylcellulose) (HPC) 92 % of control | dose: 100.0 mg/kg/injection, schedule: Q01DX005 (ip), vehicle: Klucel (hydroxypropylcellulose) (HPC) 88 % of control | dose: 200.0 mg/kg/injection, schedule: Q01DX005 (ip), vehicle: Klucel (hydroxypropylcellulose) (HPC) 88 % of control

O=C1C(c2ccccc2)=C(c2ccccc2)C2(c3ccccc3)Oc3c(Cl)c(Cl)c(Cl)c(Cl)c3OC12c1ccccc1 (stereo unspecified)
inactive: [10] 89 % of control | [11] 93 % of control

C=CCOC(=O)OCCCO
inactive: dose: 60.0 mg/kg/injection, schedule: Q01DX005 (ip), vehicle: saline 105 % of control | dose: 120.0 mg/kg/injection, schedule: Q01DX005 (ip), vehicle: saline 99 % of control

CC1CCN(C(=S)NNC(C)c2cc3ccccc3cn2)CC1 (stereo unspecified)
inactive: [7] 114 % of control

CCOC(=O)/[C](=N\N=P(N(C)C)(N(C)C)N(C)C)[Sb]([CH3])[CH3]
inactive: dose: 12.5 mg/kg/injection, schedule: Q01DX001 (ip), vehicle: saline 99 % of control | dose: 25.0 mg/kg/injection, schedule: Q01DX001 (ip), vehicle: saline 102 % of control

Cc1ccc(S(=O)(=O)N/N=C/c2c(Cl)nc3sccn23)cc1
inactive: dose: 100.0 mg/kg/injection, schedule: Q01DX001 (ip), vehicle: Klucel (hydroxypropylcellulose) (HPC) 111 % of control | dose: 200.0 mg/kg/injection, schedule: Q01DX001 (ip), vehicle: Klucel (hydroxypropylcellulose) (HPC) 108 % of control | dose: 400.0 mg/kg/injection, schedule: Q01DX001 (ip), vehicle: Klucel (hydroxypropylcellulose) (HPC) 111 % of control

O=C1OCC(c2ccccc2)(c2ccccc2)C(=O)N1O
inactive: [9] 98 % of control | [14] 103 % of control | [15] 91 % of control

O=C1Cn2c(c3ccccc3nc2=O)N1
inactive: [9] 104 % of control | [14] 103 % of control | [15] 106 % of control

Cc1ccc2nc3ccccc3cc2c1
inactive: [4] 104 % of control | [5] 100 % of control | dose: 100.0 mg/kg/injection, schedule: Q04DX003 (ip), vehicle: saline with Tween-80 95 % of control | dose: 200.0 mg/kg/injection, schedule: Q04DX003 (ip), vehicle: saline with Tween-80 99 % of control

Cn1nc(-c2ccc(Cl)c(Cl)c2)[n+]([O-])c2c(=O)n(C)c(=O)nc1-2
inactive: dose: 6.25 mg/kg/injection, schedule: Q01DX009 (ip), vehicle: saline with Tween-80 120 % of control | [2] 110 % of control and 115 % of control

CC(NS(=O)(=O)N1CCOC1=O)c1ccccc1 (stereo unspecified)
inactive: [16] 104 % of control | [17] 107 % of control | [18] 104 % of control

O=c1[nH]c2c(cnn2-c2ccc(Cl)cc2)c(=O)n1-c1cccc(Cl)c1
inactive: dose: 12.5 mg/kg/injection, schedule: Q01DX009 (ip), vehicle: Klucel (hydroxypropylcellulose) (HPC) 88 % of control | dose: 25.0 mg/kg/injection, schedule: Q01DX009 (ip), vehicle: Klucel (hydroxypropylcellulose) (HPC) 94 % of control | dose: 50.0 mg/kg/injection, schedule: Q01DX009 (ip), vehicle: Klucel (hydroxypropylcellulose) (HPC) 100 % of control

O=C1C=C(C2OC(CI)C(O)C2O)C(=O)N1 (stereo unspecified)
inactive: dose: 1.56 mg/kg/injection, schedule: Q01DX009 (ip), vehicle: water 113 % of control | dose: 3.13 mg/kg/injection, schedule: Q01DX009 (ip), vehicle: water 112 % of control | dose: 6.25 mg/kg/injection, schedule: Q01DX009 (ip), vehicle: water 118 % of control | dose: 12.5 mg/kg/injection, schedule: Q01DX009 (ip), vehicle: water 109 % of control | dose: 25.0 mg/kg/injection, schedule: Q01DX009 (ip), vehicle: water 118 % of control

O=C1C=CC2(C=C1)CCN=C(c1cc3c(cc1Br)OCO3)O2
inactive: dose: 25.0 mg/kg/injection, schedule: Q04DX002 (ip), vehicle: saline 102 % of control | dose: 50.0 mg/kg/injection, schedule: Q04DX002 (ip), vehicle: saline 103 % of control | [13] 108 % of control | dose: 100.0 mg/kg/injection, schedule: Q04DX002 (ip), vehicle: saline 100 % of control

O=C1OCCC1C(=O)C(O)(C(F)(F)F)C(F)(F)F (stereo unspecified)
inactive: dose: 50.0 mg/kg/injection, schedule: Q01DX001 (ip), vehicle: other 100 % of control | dose: 100.0 mg/kg/injection, schedule: Q01DX001 (ip), vehicle: other 95 % of control | dose: 200.0 mg/kg/injection, schedule: Q01DX001 (ip), vehicle: other 91 % of control

CN1[C@H]2CC[C@@H]1[C@@H](O)CC2
inactive: [8] 97 % of control | [9] 97 % of control | [14] 91 % of control

Cc1cccc(Nc2c(C(=O)O)cnc3cc4c(cc23)OCO4)c1C
inactive: dose: 30.0 mg/kg/injection, schedule: Q01DX005 (ip), vehicle: Klucel (hydroxypropylcellulose) (HPC) 94 % of control | [16] 96 % of control | [17] 99 % of control and 103 % of control | [18] 111 % of control

CC(Cc1ccccc1)N(C)C(=O)c1ccc[n+](C)c1 (stereo unspecified)
inactive: dose: 50.0 mg/kg/injection, schedule: Q01DX005 (ip), vehicle: saline 107 % of control | dose: 100.0 mg/kg/injection, schedule: Q01DX005 (ip), vehicle: saline 109 % of control

COc1cc(C[C@@H](CO)[C@H](CO)Cc2ccc3c(c2)OCO3)cc(OC)c1OC
inactive: dose: 6.25 mg/kg/injection, schedule: Q04DX002 (ip), vehicle: saline with Tween-80 101 % of control | dose: 12.5 mg/kg/injection, schedule: Q04DX002 (ip), vehicle: saline with Tween-80 101 % of control | dose: 25.0 mg/kg/injection, schedule: Q04DX002 (ip), vehicle: saline with Tween-80 93 % of control

CC(=O)Nc1cscc1NC(C)=O
inactive: [6] 101 % of control | [10] 94 % of control | [11] 100 % of control | [12] 101 % of control
